According to patent US20080311657A1, “Killing Human Lymphoma and Leukemia Cancer Cells and Tcr-Activated Normal Human Cells By Dopamine D1r Agonists” (priority 2005, published 2008):

Experiments:
Type in all cases: cell-based
[1] = tested on: Human chronic myelogenous leukemia cells (CML) (K-562); test: Number of living cells counted by flow cytometry (FACSort) after D1R agonist; conditions: 1 hour; for No. of Cells: 1 × 10^−4M; for Killing, in words (Table 6): 10^−4 M
Procedure: (§1) Human chronic myelogenous leukemia cells (CML) (K-562) were seeded in 96 well plates (0.5 ml per well of 0.5 million cells/ml) and A 77636 hydrochloride was added and diluted 1:00 into the wells at starting concentrations of 10^−1M-10^−4M, so that the final concentration range tested was 10^−3M-10^−6M. Afterwards, the microtiter plates were placed in an incubator (37° C., humidified incubator, 5% CO2) for 3 days. Then, the number of living cells was evaluated by flow cytometry (the cells were counted by FACsort for a fixed time length of 1 min, in which 100 microliter of each sample was tested).
as §1, with “68930” for “77636”
as §1, with “SKF 38393 hydrobromide” for “A 77636 hydrochloride”
Human chronic myelogenous leukemia cells (CML) (K-562) were seeded in 96 well plates (0.5 ml per well of 0.5 million cells/ml) and A 77636 hydrochloride was added and diluted 1:00 into the wells, at a fixed starting concentration of 10^−2M, so that the final concentration tested was 10^−4M. The experiment was designed to test the effect of exposing the cells to the D1R agonist for 1 min, 15 min, 1 hr or 72 hr. Thus, 1 min, or 15 min or 1 hr after the addition of the D1R agonist, the corresponding cells were transferred into tubes, centrifuged (1000 rpm for 10 min), and the supernatant was removed. […] Thus, its medium was not replaced, and these cells and remained as such in the incubator for 72 hr. At the end of the 72 hr incubation, the number of living cells was evaluated by flow cytometry (the cells were counted by FACsort for a fixed time length of 1 min, in which 100 microliter of each sample was tested).
(§2) Cell viability was tested afterwards.
For this purpose, the Jurkat T-cell leukemia line, the HuT-78 human T-lymphoma (cutaneous “Sezary” T-lymphoma) line, and the K-562 human Chronic-Myeloid Leukemia (CML) and Daudi Human B-lymphoma (Burkitt's lymphoma) lines were seeded in tissue culture wells (0.5 million cells/0.5 ml/well).
Cell survival/death was evaluated 3 days later by counting the number of living cells, using flow cytometry.
(§3) The effect of dopamine itself (that can of course activate all its D1R-5 receptors) was also tested. All of these molecules were tested at a similar concentration (10^−4 M). […] The specificity and restriction of the effect to the D1R is also seen in Tables 7 and 8.

[2] = tested on: Human Burkitt's B-lymphoma cells (Daudi); test: as above; conditions: 1 hour; for No. of Cells: 1 × 10^−4M; for Killing, in words (Table 5): 10^−4 M
Procedure: as §1, with “Burkitt's B-lymphoma” for “chronic myelogenous leukemia”, “(Daudi)” for “(CML) (K-562)”, “Afterwards, the microtiter plates were placed in an incubator (37° C., humidified incubator, 5% CO2) for 3 days.” left out
as §1, with “Burkitt's B-lymphoma” for “chronic myelogenous leukemia”, “(Daudi)” for “(CML) (K-562)”, “68930” for “77636”, “Afterwards, the microtiter plates were placed in an incubator (37° C., humidified incubator, 5% CO2) for 3 days.” left out
[…] Then, the number of living cells was evaluated by flow cytometry (the cells were counted by FACsort for a fixed time length of 1 min, in which 100 microliter of each sample was tested).
as §2, §3

[3] = tested on: Human Sezary T-Cell Lymphoma (HuT 78) Cells; test: Cell number, necrosis and apoptosis by Annexin V/PI flow cytometry; conditions: 1 × 10^−4M, exposed for 1 hr; for % Necrotic Cells: Annexin V+ PI+; for % Apoptotic Cells: Annexin V+ PI−
Procedure: (§4) Measurement of cell death by flow cytometry and detection of phosphatidyl serine was performed using the IQ Products kit (R&D systems), according to the manufacturers instructions.
(§5) In detail: The Phosphatidyl Serine Detection kit provides a rapid and reliable method for the detection of apoptosis by flow cytometry. This method enables detection at the single-cell level, and also allows the distinction between apoptosis and necrosis.
(§6) During the early stages of apoptosis, phosphatidyl serine (PS) becomes exposed on the outside of the cell membrane. This early stage of apoptosis can be specifically detected by PS binding proteins (Annexin V).
(§7) During the early stages of apoptosis, the cell membrane is intact and the cells exclude propidium iodide (PI). Later, during the apoptosis process, the membrane becomes porous and PI becomes associated with DNA. The uptake of PI is an indication of necrosis.
as §3
(§8) Cancer death induced by selective D1R agonists occurs via necrosis. To study the mechanism by which the cancer cells die, due to their incubation with DR1 agonists, the phosphatidyl serine detection kit was used. This kit provides a rapid and reliable method for the detection of apoptosis by flow cytometry, enables detection at the single-cell level, and also allows the distinction between apoptosis and necrosis.
(§9) During the early stages of apoptosis, phosphatidyl serine (PS) becomes exposed on the outside of the cell membrane. This early stage of apoptosis can be specifically detected by PS binding proteins (Annexin V). During the early stages of apoptosis, the cell membrane is intact and the cells exclude propidium iodide (PI). Later, during the apoptosis process, the membrane becomes porous and PI becomes associated with DNA. The uptake of PI is an indication of necrosis. Thus, Annexin V^+ PI^− are considered cells that are undergoing apoptosis, while Annexin V^+ PI^+ are considered cells that are undergoing necrosis. Live cells are Annexin V^− PI^−.

[4] = tested on: Human T-Cell Leukemia (Jurat) Cells; test: as above; conditions: 1 × 10^−4M, exposed for 1 hr; for % Necrotic Cells: Annexin V+ PI+; for % Apoptotic Cells: Annexin V+ PI−
Procedure: as §4, §5, §6, §7, §3, §8, §9

Structure (SMILES) | No. of Cells [1] | Killing, in words (Table 6) [1] | No. of Cells [2] | Killing, in words (Table 5) [2] | No. of Cells [3] | % Necrotic Cells [3] [%] | % Apoptotic Cells [3] [%] | No. of Cells [4] | % Necrotic Cells [4] [%] | % Apoptotic Cells [4] [%]
CCCN1CCC[C@@H]2Cc3n[nH]cc3C[C@H]21 [D2R Agonist, Quinpirole] | 27,360 | no such effect | 20,805 | no such effect | 23,880 | 21.97 | 12.00 | 7,395 | 7.65 | 1.38
CCCN(CCC)C1CCc2ccc(O)cc2C1 (stereo not drawn) [D3R Agonist, 7-Hydroxy-DPAT] | 21,960 | no such effect | 18,330 | no such effect | 18,975 | 21.40 | 14.67 | 9,300 | 10.27 | 1.68
NCCc1ccc(O)c(O)c1 [Dopamine] | 24,480 | not the CML | 5,325 | killed the B-lymphoma cells | 16,395 | 39.80 | 19.07 | 4,545 | 42.84 | 7.06
